{"source": "ChEMBL document CHEMBL1240375", "about": "“Identification of a plasmid-borne resistance gene cluster comprising the resistance genes erm(T), dfrK, and tet(L) in a porcine methicillin-resistant Staphylococcus aureus ST398 strain” (2010)", "key": {"[1]": {"test_system": "Staphylococcus aureus", "assay": "Antimicrobial activity against Staphylococcus aureus RN4220 transformant carrying plasmid pKKS25 and expressing erm(T), dfrK and tet(L) genes by broth microdilution method", "format": "functional"}, "[2]": {"test_system": "Staphylococcus aureus", "assay": "Antimicrobial activity against Staphylococcus aureus RN4220 by broth microdilution method", "format": "functional"}, "[3]": {"test_system": "Staphylococcus aureus", "assay": "Antimicrobial activity against Staphylococcus aureus 25 transformant carrying plasmid pKKS25 and expressing erm(T), dfrKtet(L), tet(K), tet(M), mecA and blaZ genes by broth microdilution method"}}}
{"compound": "CC1(C)S[C@@H]2[C@H](NC(=O)[C@H](N)c3ccccc3)C(=O)N2[C@H]1C(=O)O", "note": "[AMPICILLIN]", "values": [{"measurement": "MIC", "setting": "[1]", "value": 0.06, "unit": "µg/mL"}, {"measurement": "MIC", "setting": "[2]", "value": 0.06, "unit": "µg/mL"}]}
{"compound": "CN[C@@H]1[C@@H](O[C@H]2O[C@H](CO)[C@@H](N)[C@H](O)[C@H]2O)OC2C[C@@H](N)[C@@H](O[C@H]3[C@H](O)[C@@H](O)[C@H](N)C[C@@H]3N)OC2[C@@H]1O", "note": "(stereo not given in full) [APRAMYCIN]", "values": [{"measurement": "MIC", "setting": "[1]", "value": 1, "unit": "µg/mL"}, {"measurement": "MIC", "setting": "[2]", "value": 1, "unit": "µg/mL"}, {"measurement": "MIC", "setting": "[3]", "value": 4, "unit": "µg/mL"}]}
{"compound": "O=C(N[C@H](CO)[C@H](O)c1ccc([N+](=O)[O-])cc1)C(Cl)Cl", "note": "[CHLORAMPHENICOL]", "values": [{"measurement": "MIC", "setting": "[1]", "value": 4, "unit": "µg/mL"}, {"measurement": "MIC", "setting": "[2]", "value": 4, "unit": "µg/mL"}, {"measurement": "MIC", "setting": "[3]", "value": 8, "unit": "µg/mL"}]}
{"compound": "CCC[C@@H]1C[C@@H](C(=O)N[C@@H]([C@H]2O[C@H](SC)[C@H](O)[C@@H](O)[C@H]2O)[C@H](C)Cl)N(C)C1", "note": "[CLINDAMYCIN]", "values": [{"measurement": "MIC", "setting": "[1]", "value": "≥ 64", "unit": "µg/mL"}, {"measurement": "MIC", "setting": "[2]", "value": "≤ 0.12", "unit": "µg/mL"}, {"measurement": "MIC", "setting": "[3]", "value": "≥ 64", "unit": "µg/mL"}]}
{"compound": "CCN1CCN(c2cc3c(cc2F)c(=O)c(C(=O)O)cn3C2CC2)CC1", "note": "[ENROFLOXACIN]", "values": [{"measurement": "MIC", "setting": "[1]", "value": 0.25, "unit": "µg/mL"}, {"measurement": "MIC", "setting": "[2]", "value": 0.25, "unit": "µg/mL"}, {"measurement": "MIC", "setting": "[3]", "value": 0.25, "unit": "µg/mL"}]}
{"compound": "CC[C@H]1OC(=O)[C@H](C)[C@@H](O[C@H]2C[C@@](C)(OC)[C@@H](O)[C@H](C)O2)[C@H](C)[C@@H](O[C@@H]2O[C@H](C)C[C@H](N(C)C)[C@H]2O)[C@](C)(O)C[C@@H](C)C(=O)[C@H](C)[C@@H](O)[C@]1(C)O", "note": "[ERYTHROMYCIN]", "values": [{"measurement": "MIC", "setting": "[1]", "value": "≥ 128", "unit": "µg/mL"}, {"measurement": "MIC", "setting": "[2]", "value": 0.25, "unit": "µg/mL"}, {"measurement": "MIC", "setting": "[3]", "value": "≥ 128", "unit": "µg/mL"}]}
{"compound": "CC(=O)NC[C@H]1CN(c2ccc(N3CCOCC3)c(F)c2)C(=O)O1", "note": "[LINEZOLID]", "values": [{"measurement": "MIC", "setting": "[1]", "value": 0.5, "unit": "µg/mL"}, {"measurement": "MIC", "setting": "[2]", "value": 0.5, "unit": "µg/mL"}, {"measurement": "MIC", "setting": "[3]", "value": 0.5, "unit": "µg/mL"}]}
{"compound": "Cc1onc(-c2ccccc2)c1C(=O)N[C@@H]1C(=O)N2[C@@H]1SC(C)(C)[C@@H]2C(=O)O", "note": "[OXACILLIN]", "values": [{"measurement": "MIC", "setting": "[1]", "value": 0.06, "unit": "µg/mL"}, {"measurement": "MIC", "setting": "[2]", "value": 0.06, "unit": "µg/mL"}, {"measurement": "MIC", "setting": "[3]", "value": 8, "unit": "µg/mL"}]}
{"compound": "CC1(C)S[C@@H]2[C@H](NC(=O)Cc3ccccc3)C(=O)N2[C@H]1C(=O)O", "note": "[PENICILLIN G]", "values": [{"measurement": "MIC", "setting": "[2]", "value": "≤ 0.03", "unit": "µg/mL"}, {"measurement": "MIC", "setting": "[3]", "value": 16, "unit": "µg/mL"}]}
{"compound": "CN[C@@H]1[C@H](O)[C@H](NC)[C@H]2O[C@@]3(O)C(=O)C[C@@H](C)O[C@H]3O[C@@H]2[C@H]1O", "note": "[SPECTINOMYCIN]", "values": [{"measurement": "MIC", "setting": "[1]", "value": 64, "unit": "µg/mL"}, {"measurement": "MIC", "setting": "[2]", "value": 64, "unit": "µg/mL"}, {"measurement": "MIC", "setting": "[3]", "value": 64, "unit": "µg/mL"}]}
{"compound": "CN(C)[C@@H]1C(O)=C(C(N)=O)C(=O)[C@@]2(O)C(O)=C3C(=O)c4c(O)cccc4[C@@](C)(O)[C@H]3C[C@@H]12", "note": "[TETRACYCLINE]", "values": [{"measurement": "MIC", "setting": "[1]", "value": 32, "unit": "µg/mL"}, {"measurement": "MIC", "setting": "[2]", "value": 0.06, "unit": "µg/mL"}, {"measurement": "MIC", "setting": "[3]", "value": 128, "unit": "µg/mL"}]}
{"compound": "C=C[C@]1(C)C[C@@H](OC(=O)CSCCN(CC)CC)[C@]2(C)[C@H](C)CC[C@]3(CCC(=O)[C@H]32)[C@@H](C)[C@@H]1O", "note": "[TIAMULIN]", "values": [{"measurement": "MIC", "setting": "[1]", "value": 0.12, "unit": "µg/mL"}, {"measurement": "MIC", "setting": "[2]", "value": 0.12, "unit": "µg/mL"}, {"measurement": "MIC", "setting": "[3]", "value": 0.5, "unit": "µg/mL"}]}
{"compound": "COc1cc(Cc2cnc(N)nc2N)cc(OC)c1OC", "note": "[TRIMETHOPRIM]", "values": [{"measurement": "MIC", "setting": "[1]", "value": "≥ 128", "unit": "µg/mL"}, {"measurement": "MIC", "setting": "[2]", "value": 0.5, "unit": "µg/mL"}, {"measurement": "MIC", "setting": "[3]", "value": "≥ 128", "unit": "µg/mL"}]}
{"compound": "CC[C@H]1OC(=O)C[C@@H](O)[C@H](C)[C@@H](O[C@@H]2O[C@H](C)[C@@H](O[C@H]3C[C@@](C)(O)[C@@H](O)[C@H](C)O3)[C@H](N(C)C)[C@H]2O)[C@@H](CC=O)C[C@@H](C)C(=O)/C=C/C(C)=C/[C@@H]1CO[C@@H]1O[C@H](C)[C@@H](O)[C@@H](OC)[C@H]1OC.O=C(O)C(O)C(O)C(=O)O", "note": "[TYLOCIN TARTARATE]", "values": [{"measurement": "MIC", "setting": "[1]", "value": "≥ 64", "unit": "µg/mL"}, {"measurement": "MIC", "setting": "[2]", "value": 1, "unit": "µg/mL"}, {"measurement": "MIC", "setting": "[3]", "value": "≥ 64", "unit": "µg/mL"}]}
{"compound": "C=C[C@]1(C)C[C@@H](OC(=O)CSC(C)(C)CNC(=O)[C@H](N)C(C)C)[C@]2(C)[C@H](C)CC[C@]3(CCC(=O)[C@H]32)[C@@H](C)[C@@H]1O", "note": "[VALNEMULIN]", "values": [{"measurement": "MIC", "setting": "[1]", "value": 0.03, "unit": "µg/mL"}, {"measurement": "MIC", "setting": "[2]", "value": 0.03, "unit": "µg/mL"}, {"measurement": "MIC", "setting": "[3]", "value": 0.03, "unit": "µg/mL"}]}
{"compound": "GENTAMICIN", "values": [{"measurement": "MIC", "setting": "[1]", "value": 0.25, "unit": "µg/mL"}, {"measurement": "MIC", "setting": "[2]", "value": 0.25, "unit": "µg/mL"}]}
